Tested on: Arp2/3 complex
Assay: in vitro actin polymerization test (pyrene-labeled actin)
Format: biochemical
Details: 10 μM, VCA domain protein, spherical actin monomers, 1 hour, compared to control (FIG. 1)
Procedure: Although actin polymerization, which is a process of forming actin filaments from actin monomers, is involved in controlling cell movement, tissue fibrosis may be caused by the promotion of excessive α-SMA expression and induction of myofibroblast activation. Accordingly, an in vitro actin polymerization test was performed to confirm the actin polymerization controlling function of the compounds according to the present invention.
Specifically, a pyrene-labeled spherical actin stock was diluted with general actin buffer (5 mM Tris-HCl pH 8.0, 0.2 mM CaCl2)) and incubated at 4° C. for 1 hour, thereby producing spherical actin monomers. Afterward, 80% of a supernatant was recovered by centrifugation at 20,000×g and 4° C. for 3 hours, and 0.1 mg/mL spherical actin monomers were prepared. The Arp2/3 complex, the VCA domain protein, and Compound 12, 38, or 59 (10 μM each) according to the present invention were added to the spherical actin monomers and an actin polymerization buffer and reacted at room temperature for 1 hour. The increased fluorescence intensity during the reaction from the spherical actin monomer to a fibrous actin polymer was measured using a microplate reader at an excitation wavelength of 360 nm and an emission wavelength of 407 nm. The degree of actin polymerization was shown relative to the maximum polymerization rate (arbitrary units).

In the case of `CC(C(=O)N1CCN(c2ccccc2)c2cc(F)ccc21)N1CCCCC1` (stereo not drawn) [Compound 12, 1-(6-fluoro-4-phenyl-3,4-dihydroquinoxaline-1(2H)-yl)-2-(piperidin-1-yl)propan-1-one], the “actin polymerization activity (maximum polymerization rate)” value is reported as “decreased compared to the control”.
For `O=C(CCN1CCCCC1)N1CCN(c2ccc(F)cc2)c2cc(F)ccc21` [Compound 38, 1-(6-fluoro-4-(4-fluorophenyl)-3,4-dihydroquinoxaline-1(2H)-yl)-3-(piperidin-1-yl)propan-1-one], the “actin polymerization activity (maximum polymerization rate)” value was “decreased compared to the control”.

Tested on: not given
Assay: not given
Details: clinical use in IPF patients; cited from earlier work

For `Cc1ccc(=O)n(-c2ccccc2)c1` [Pirfenidone], the “improvement in lung function (treatment effect) in IPF” value is given as “about 10%”.

Tested on: MCR5 cell line
Assay: intracellular F-actin polymerization, TGF-β1-treated cells, confocal microscope
Format: cell-based
Details: 10 μM along with TGF-β1 (10 ng/mL), 48 hours (FIGS. 2A and 2B)
Source text: F-actin polymerization activates transcription factors involved in the activation of myofibroblasts and the initiation of fibrosis. Accordingly, when F-actin polymerization decreases, the expression of fibrosis-causing genes by the transcription factors may be inhibited, and the activation and fibrosis of muscle fiber cells may be reduced. Therefore, in this example, it was confirmed whether the compounds according to the present invention are effective in inhibiting F-actin polymerization.
An MCR5 cell line was dispensed at 1×10^3 cells/well in a 96-well black micro plate and cultured in Medium 1 (10% FBS-containing MEM) in 5% CO2 at 37° C. for 24 hours. Subsequently, the above medium was exchanged with Medium 2 (0.5% FBS-containing MEM), a compound of the present invention was treated at 10 μM along with TGF-β1 (10 ng/mL), and the cells were incubated for 48 hours. After removing the entire batch, the cells were treated with each of CellMask Orange Actin Tracking Stain (Invitrogen) and NucBlue Live ReadyProbes (Invitrogen) to performing F-actin and cell nucleus staining in accordance with the manufacturer's recommended conditions. Cells treated with the staining reagents were incubated for 30 minutes at 5% CO2 and 37° C. while blocking light. After completing the incubation, the staining reagents were removed, fresh Medium 1 was added to the cells at 100 μL/well, and then the cells were incubated for 5 minutes, followed by removal of the medium. The above process was repeated three times. To observe the stained F-actin and cell nucleus, PBS was added to the plate at 100 μL/well, and then the cells were photographed using a confocal microscope (Leica) and analyzed using Image J software.

With `CC(C(=O)N1CCN(c2ccccc2)c2cc(F)ccc21)N1CCCCC1` (stereo not drawn) [Compound 12, 1-(6-fluoro-4-phenyl-3,4-dihydroquinoxaline-1(2H)-yl)-2-(piperidin-1-yl)propan-1-one] the “intracellular F-actin polymerization” value was “significantly reduced”.
In the case of `O=C(CCN1CCCCC1)N1CCN(c2ccc(F)cc2)c2cc(F)ccc21` [Compound 38, 1-(6-fluoro-4-(4-fluorophenyl)-3,4-dihydroquinoxaline-1(2H)-yl)-3-(piperidin-1-yl)propan-1-one], the “intracellular F-actin polymerization” value is reported as “significantly reduced”.

Tested on: α-SMA
Assay: α-SMA expression inhibitory ability in MRC5 cell line (Western blotting)
Format: cell-based
Details: TGF-β1 (10 ng/mL), 72 hours, relative to TGF-β1 only
Procedure, shortened: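 MRC5 cells given compound at 10 μM, then TGF-β1 (10 ng/mL) 2 h later; after 72 h, lysates probed for α-SMA by Western blot. Inhibition is α-SMA level relative to TGF-β1 alone, binned A ≥70%, B 50–<70%, C <50%.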

Going from `CC(C(=O)N1CCN(c2ccccc2)c2cc(F)ccc21)N1CCCCC1` (stereo not drawn) [Compound 12, 1-(6-fluoro-4-phenyl-3,4-dihydroquinoxaline-1(2H)-yl)-2-(piperidin-1-yl)propan-1-one] to `CC(C(=O)N1CCN(C(=O)c2ccccc2)c2ccccc21)N1CCCCC1` (stereo not drawn) [Compound 200, 1-(4-benzoyl-3,4-dihydroquinoxaline-1(2H)-yl)-2-(piperidin-1-yl)propan-1-one], the inhibition at 10 µM falls from no less than 70% to less than 50%.

Compared with `O=C(CCN1CCCCC1)N1CCN(c2ccc(F)cc2)c2cc(F)ccc21` [Compound 38, 1-(6-fluoro-4-(4-fluorophenyl)-3,4-dihydroquinoxaline-1(2H)-yl)-3-(piperidin-1-yl)propan-1-one], `CC(C)N1CCN(C(=O)CCN2CCCCC2)c2ccccc21` [Compound 178, 1-(4-isopropyl-3,4-dihydroquinoxaline-1(2H)-yl)-3-(piperidin-1-yl)propan-1-one] is lower in inhibition at 10 µM: no less than 70% for the first, less than 50% for the second.

Compared with `CC(C(=O)N1CCN(CC2CC2)c2ccccc21)N1CCN(C)CC1` (stereo not drawn) [Compound 166, 1-(4-(cyclopropylmethyl)-3,4-dihydroquinoxaline-1(2H)-yl)-2-(4-methylpiperazin-1-yl)propan-1-one], `CC(C)CN1CCN(C(=O)C(C)N2CCN(C)CC2)c2ccccc21` (stereo not drawn) [Compound 173, 1-(4-isobutyl-3,4-dihydroquinoxaline-1(2H)-yl)-2-(4-methylpiperazin-1-yl)propan-1-one] is higher in inhibition at 10 µM: less than 50% for the first, 50 to 70% for the second.

First: CC(C)CN1CCN(C(=O)CCN2CCCCC2)c2ccccc21 [Compound 169, 1-(4-isobutyl-3,4-dihydroquinoxaline-1(2H)-yl)-3-(piperidin-1-yl)propan-1-one]
Second: CC(C)CN1CCN(C(=O)CN2CCCCC2)c2ccccc21 [Compound 175, 1-(4-isobutyl-3,4-dihydroquinoxaline-1(2H)-yl)-2-(piperidin-1-yl)ethan-1-one]
The inhibition at 10 µM of the first is higher: 50 to 70% for the first, less than 50% for the second.

First: CC(C)CN1CCN(C(=O)CCN2CCN(C)CC2)c2ccccc21 [Compound 170, 1-(4-isobutyl-3,4-dihydroquinoxaline-1(2H)-yl)-3-(4-methylpiperazin-1-yl)propan-1-one di L-tartrate]
Second: CC(C)CN1CCN(C(=O)CN2CCN(C)CC2)c2ccccc21 [Compound 176, 1-(4-isobutyl-3,4-dihydroquinoxaline-1(2H)-yl)-2-(4-methylpiperazin-1-yl)ethan-1-one]
The inhibition at 10 µM of the first is higher: 50 to 70% for the first, less than 50% for the second.

`CC(C)CN1CCN(C(=O)C(C)N2CCCCC2)c2ccccc21` (stereo not drawn) [Compound 172, 1-(4-isobutyl-3,4-dihydroquinoxaline-1(2H)-yl)-2-(piperidin-1-yl)propan-1-one] and `CC(C(=O)N1CCN(C(C)C)c2ccccc21)N1CCCCC1` (stereo not drawn) [Compound 181, 1-(4-isopropyl-3,4-dihydroquinoxaline-1(2H)-yl)-2-(piperidin-1-yl)propan-1-one] cannot be ordered by inhibition at 10 µM: less than 50% for the first, less than 50% for the second.

Compared with `CC(C)CN1CCN(C(=O)CN2CCCC2)c2ccccc21` [Compound 174, 1-(4-isobutyl-3,4-dihydroquinoxaline-1(2H)-yl)-2-(pyrrolidin-1-yl)ethan-1-one], `CC(C)N1CCN(C(=O)CN2CCCCC2)c2ccccc21` [Compound 184, 1-(4-isopropyl-3,4-dihydroquinoxaline-1(2H)-yl)-2-(piperidin-1-yl)ethan-1-one] is lower in inhibition at 10 µM: 50 to 70% for the first, less than 50% for the second.

`CC(C)N1CCN(C(=O)CCN2CCCC2)c2ccccc21` [Compound 177, 1-(4-isopropyl-3,4-dihydroquinoxaline-1(2H)-yl)-3-(pyrrolidin-1-yl)propan-1-one] and `CC(C)N1CCN(C(=O)CCN2CCN(C)CC2)c2ccccc21` [Compound 179, 1-(4-isopropyl-3,4-dihydroquinoxaline-1(2H)-yl)-3-(4-methylpiperazin-1-yl)propan-1-one] cannot be ordered by inhibition at 10 µM: less than 50% for the first, less than 50% for the second.

`CC(C(=O)N1CCN(C(C)C)c2ccccc21)N1CCN(C)CC1` (stereo not drawn) [Compound 182, 1-(4-isopropyl-3,4-dihydroquinoxaline-1(2H)-yl)-2-(4-methylpiperazin-1-yl)propan-1-one] and `CC(C(=O)N1CCN(C2CCCCC2)c2ccccc21)N1CCN(C)CC1` (stereo not drawn) [Compound 192, 1-(4-cyclohexyl-3,4-dihydroquinoxaline-1(2H)-yl)-2-(4-methylpiperazin-1-yl)propan-1-one] cannot be ordered by inhibition at 10 µM: less than 50% for the first, less than 50% for the second.

`O=C(CCN1CCCC1)N1CCN(C2CCCCC2)c2ccccc21` [Compound 186, 1-(4-cyclohexyl-3,4-dihydroquinoxaline-1(2H)-yl)-3-(pyrrolidin-1-yl)propan-1-one] and `O=C(CCN1CCCCC1)N1CCN(C2CCCCC2)c2ccccc21` [Compound 187, 1-(4-cyclohexyl-3,4-dihydroquinoxaline-1(2H)-yl)-3-(piperidin-1-yl)propan-1-one] cannot be ordered by inhibition at 10 µM: 50 to 70% for the first, no less than 70% for the second.

First: CN1CCN(CCC(=O)N2CCN(C3CCCCC3)c3ccccc32)CC1 [Compound 188, 1-(4-cyclohexyl-3,4-dihydroquinoxaline-1(2H)-yl)-3-(4-methylpiperazin-1-yl)propan-1-one]
Second: O=C(CN1CCCC1)N1CCN(C2CCCCC2)c2ccccc21 [Compound 193, 1-(4-cyclohexyl-3,4-dihydroquinoxaline-1(2H)-yl)-2-(pyrrolidin-1-yl)ethan-1-one]
The inhibition at 10 µM of the first is higher: 50 to 70% for the first, less than 50% for the second.

First: CC(C(=O)N1CCN(C2CCCCC2)c2ccccc21)N1CCCCC1 (stereo not drawn) [Compound 191, 1-(4-cyclohexyl-3,4-dihydroquinoxaline-1(2H)-yl)-2-(piperidin-1-yl)propan-1-one]
Second: O=C(CN1CCCCC1)N1CCN(C2CCCCC2)c2ccccc21 [Compound 194, 1-(4-cyclohexyl-3,4-dihydroquinoxaline-1(2H)-yl)-2-(piperidin-1-yl)ethan-1-one]
The inhibition at 10 µM of the first is higher: 50 to 70% for the first, less than 50% for the second.

`O=C(CCN1CCCC1)N1CCN(C(=O)c2ccccc2)c2ccccc21` [Compound 196, 1-(4-benzoyl-3,4-dihydroquinoxaline-1(2H)-yl)-3-(pyrrolidin-1-yl)propan-1-one] and `O=C(CN1CCCC1)N1CCN(C(=O)c2ccccc2)c2ccccc21` [Compound 202, 1-(4-benzoyl-3,4-dihydroquinoxaline-1(2H)-yl)-2-(pyrrolidin-1-yl)ethan-1-one] cannot be ordered by inhibition at 10 µM: less than 50% for the first, less than 50% for the second.

`CN1CCN(CCC(=O)N2CCN(C(=O)c3ccccc3)c3ccccc32)CC1` [Compound 198, 1-(4-benzoyl-3,4-dihydroquinoxaline-1(2H)-yl)-3-(4-methylpiperazin-1-yl)propan-1-one] and `CN1CCN(CC(=O)N2CCN(C(=O)c3ccccc3)c3ccccc32)CC1` [Compound 204, 1-(4-benzoyl-3,4-dihydroquinoxaline-1(2H)-yl)-2-(4-methylpiperazin-1-yl)ethan-1-one] cannot be ordered by inhibition at 10 µM: less than 50% for the first, less than 50% for the second.

`CC(C(=O)N1CCN(C(=O)c2ccccc2)c2ccccc21)N1CCCC1` (stereo not drawn) [Compound 199, 1-(4-benzoyl-3,4-dihydroquinoxaline-1(2H)-yl)-2-(pyrrolidin-1-yl)propan-1-one] and `CC(C(=O)N1CCN(C(=O)c2ccccc2)c2ccccc21)N1CCN(C)CC1` (stereo not drawn) [Compound 201, 1-(4-benzoyl-3,4-dihydroquinoxaline-1(2H)-yl)-2-(4-methylpiperazin-1-yl)propan-1-one] cannot be ordered by inhibition at 10 µM: less than 50% for the first, less than 50% for the second.

Molecule `O=C(CN1CCCCC1)N1CCN(C(=O)c2ccccc2)c2ccccc21` [Compound 203, 1-(4-benzoyl-3,4-dihydroquinoxaline-1(2H)-yl)-2-(piperidin-1-yl)ethan-1-one] has an inhibition at 10 µM of less than 50%.
